From patent publication US9102648B1, “Bioavailable diacylhydrazine ligands for modulating the expression of exogenous genes via an ecdysone receptor complex” (Intrexon Corporation, priority 2003, dated 2015)
Where two headings read alike, the source gives them in different places.

Columns and labels:
[1] = target: T1, Bombyx mori EcR (VP16 fusion, CVBE switch construct) (Bombyx mori, UniProt P49881); assay: Z3 Assay (HEK-293 cells with CVBE and 6XEcRE LacZ, β-galactosidase reporter); settings: for Fold Induction, Z3 Assay, 3.3 uM: 3.3 uM ligand; for Fold Induction, Z3 Assay, 3.3 uM / Fold Induction, Z3 Assay, 33 uM: ligand treated / DMSO treated cells; for Fold Induction, Z3 Assay, 33 uM: 33 uM ligand; for Z3 assay Rel Max FI: maximum fold induction at any concentration relative to that of GS-E ligand; for fold induction at 3.3 µM: HEK293, read-out: Fold Induction, Z3 Assay, 3.3 uM; for fold induction at 33 µM: HEK293, read-out: Fold Induction, Z3 Assay, 33 uM
T1 sequence (P49881 86-606): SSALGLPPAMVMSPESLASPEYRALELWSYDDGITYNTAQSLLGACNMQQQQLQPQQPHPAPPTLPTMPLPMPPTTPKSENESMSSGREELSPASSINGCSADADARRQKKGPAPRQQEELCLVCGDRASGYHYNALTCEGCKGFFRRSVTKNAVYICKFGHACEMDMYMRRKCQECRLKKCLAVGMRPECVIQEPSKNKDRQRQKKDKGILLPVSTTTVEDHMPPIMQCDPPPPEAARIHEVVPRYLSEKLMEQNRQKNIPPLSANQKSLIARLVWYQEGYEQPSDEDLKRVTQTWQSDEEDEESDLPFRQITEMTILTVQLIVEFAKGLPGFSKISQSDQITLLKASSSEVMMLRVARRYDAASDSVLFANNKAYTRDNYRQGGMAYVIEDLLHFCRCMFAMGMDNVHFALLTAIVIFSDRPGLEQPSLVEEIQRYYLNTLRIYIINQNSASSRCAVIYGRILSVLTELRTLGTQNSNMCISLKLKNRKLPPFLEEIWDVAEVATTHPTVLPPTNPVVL
T1 sequence (P19793 1-462 partner): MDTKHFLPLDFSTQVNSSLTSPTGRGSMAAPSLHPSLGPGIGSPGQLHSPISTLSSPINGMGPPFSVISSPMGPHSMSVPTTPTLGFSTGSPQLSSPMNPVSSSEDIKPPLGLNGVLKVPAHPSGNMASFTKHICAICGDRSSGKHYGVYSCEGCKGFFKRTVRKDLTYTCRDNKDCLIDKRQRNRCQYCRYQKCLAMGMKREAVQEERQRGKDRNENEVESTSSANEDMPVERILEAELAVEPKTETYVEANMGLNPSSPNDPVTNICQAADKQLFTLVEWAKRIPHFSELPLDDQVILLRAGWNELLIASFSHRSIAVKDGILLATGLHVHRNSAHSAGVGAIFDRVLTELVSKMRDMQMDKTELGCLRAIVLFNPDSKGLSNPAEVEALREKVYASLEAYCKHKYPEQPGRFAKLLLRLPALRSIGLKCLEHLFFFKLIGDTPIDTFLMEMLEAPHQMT

[2] = target: GAL4 DBD-CfEcR(DEF)/VP16AD-MmRXRE (Choristoneura fumiferana, UniProt O77240); assay: 13B3 Assay (CHO stable cell line, luciferase reporter); settings: for Fold Induction, 13B3 Assay, 3.3 uM: 3.3 uM ligand; for Fold Induction, 13B3 Assay, 3.3 uM / Fold Induction, 13B3 Assay, 33 uM: RLU ligand treated / RLU DMSO treated cells; for Fold Induction, 13B3 Assay, 3.3 uM / Fold Induction, 13B3 Assay, 33 uM / EC50: average of two wells; for Fold Induction, 13B3 Assay, 33 uM: 33 uM ligand; for 13B3 assay Rel Max FI: maximum fold induction at any concentration relative to that of GS-E ligand, CHO 13B3 cells; for EC50: read-out: 13B3 EC50, CHO 13B3 stable cell line, luciferase reporter, 48 h
Summary of the method: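 Ligands dosed at 8 levels from 33 to 0.01 μM (DMSO stocks diluted 300-fold) onto the 13B3 CHO line carrying GAL4-DBD/CfEcR-DEF, VP16/MmRXR-DE and a GAL4-responsive luciferase gene.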

[3] = read-out: Z3 assay EC50, HEK-293 Z3 cells, β-galactosidase reporter, average of two wells

Compound	Fold Induction, Z3 Assay, 3.3 uM ([1]; average of two wells)	Fold Induction, Z3 Assay, 33 uM ([1]; average of two wells)	Z3 assay Rel Max FI ([1]; HEK-293 Z3 cells)	EC50 [1, 3] [nM]	Fold Induction, 13B3 Assay, 3.3 uM [2]	Fold Induction, 13B3 Assay, 33 uM [2]	13B3 assay Rel Max FI [2]	EC50 [2] [nM]	EC50 [1] [nM]	fold induction at 3.3 µM [1]	fold induction at 33 µM [1]
COc1cccc(C(=O)NN(C(=O)c2cccc(C)c2)C(C)(C)C)c1C [RG-100694]	1294	1288	1.157	389	3385	2078	0.632	405			
CCc1c(OC)cccc1C(=O)NN(C(=O)c1cc(Cl)ccc1[N+](=O)[O-])C(C)(C)C [RG-115257]	297	691	0.885	204	820	354	0.742	886			
CCc1c(OC)cccc1C(=O)NN(C(=O)c1cc(OC)c(C)c(OC)c1)C(CC)C(C)(C)C (stereo not shown) [RG-115831]	1481	544	0.937	102							
CCC(N(NC(=O)c1cccc(OC)c1C)C(=O)c1cc(OC)c(C)c(OC)c1)C(C)(C)C (stereo not shown) [RG-115820, 3,5-dimethoxy-4-methyl-benzoic acid N-(1-ethyl-2,2-dimethyl-propyl)-N′-(3-methoxy-2-methyl-benzoyl)-hydrazide]			0.887						203	1410	701
CCCC(N(NC(=O)c1cccc(OC)c1C)C(=O)c1cc(C)cc(C)c1)C(C)(C)C (stereo not shown) [RG-115823]	1440	1050	0.933	20							
CCc1c(OC)cccc1C(=O)NN(C(=O)c1cc(C)cc(C)c1)C(CC)C(C)(C)C (stereo not shown) [RG-115832]	1564	621	1.002	37							
CCCC(N(NC(=O)c1cccc(OC)c1C)C(=O)c1cc(OC)c(C)c(OC)c1)C(C)(C)C (stereo not shown) [RG-115824]	895	737	0.806	46							
CCc1c(C(=O)NN(C(=O)c2ccc(F)c(C(F)(F)F)c2)C(C)(C)C)ccc2c1OCCO2 [RG-115280]		376									
CCCC(N(NC(=O)c1cccc(OC)c1CC)C(=O)c1cc(C)cc(C)c1)C(C)(C)C (stereo not shown) [RG-115830]	1604	983	1.020	45							
CCCC(N(NC(=O)c1cccc(OC)c1CC)C(=O)c1cc(OC)c(C)c(OC)c1)C(C)(C)C (stereo not shown) [RG-115829, 3,5-Dimethoxy-4-methyl-benzoic acid N-(1-tert-butyl-butyl)-N′-(2-ethyl-3-methoxy-benzoyl)-hydrazide]			0.937						58	1440	319
CCC(N(NC(=O)c1cccc(OC)c1C)C(=O)c1cc(C)cc(C)c1)C(C)(C)C (stereo not shown) [RG-115819, 3,5-dimethyl-benzoic acid N-(1-ethyl-2,2-dimethyl-propyl)-N′-(3-methoxy-2-methyl-benzoyl)-hydrazide]			0.915						42	1430	722
